Assay results taken from PubChem BioAssay AID1963860 (Molecular Pharmacology Branch, DTP, NCI, 2024).

Tested on: CN0375-F725-PDC KRAS spheroid viability
Assay: Anticancer human tumor CN0375-F725-PDC patient-derived colon carcinoma cell line growth inhibition [KRAS2]
Conditions: spheroids with HUVEC and MSC; for IC50: curve of first compound; for viability, T/C: stronger effect = lower value
How it was run: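 Combination screen of spheroid viability in tumor-cell co-cultures with endothelial (HUVEC) and mesenchymal stem cell stroma. Each agent was tested in half-log dilutions, topping at clinical Cmax or at 10 microM without a known Cmax.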

[1] = second compound 0.1 µM, first compound 0.0316 µM
[2] = second compound 0.1 µM, first compound 0.1 µM
[3] = second compound 0.1 µM, first compound 0.316 µM
[4] = second compound 0.1 µM, first compound 1 µM
[5] = second compound 0.1 µM, first compound 3.16 µM
[6] = second compound 0.1 µM, first compound 10 µM
[7] = second compound 0.316 µM, first compound 0.0316 µM
[8] = second compound 0.316 µM, first compound 0.1 µM
[9] = second compound 0.316 µM, first compound 0.316 µM
[10] = second compound 0.316 µM, first compound 1 µM
[11] = second compound 0.316 µM, first compound 3.16 µM
[12] = second compound 0.316 µM, first compound 10 µM
[13] = second compound 1 µM, first compound 0.0316 µM
[14] = second compound 1 µM, first compound 0.1 µM
[15] = second compound 1 µM, first compound 0.316 µM
[16] = second compound 1 µM, first compound 1 µM
[17] = second compound 1 µM, first compound 3.16 µM
[18] = second compound 1 µM, first compound 10 µM
[19] = second compound 3.16 µM, first compound 0.0316 µM
[20] = second compound 3.16 µM, first compound 0.1 µM
[21] = second compound 3.16 µM, first compound 0.316 µM
[22] = second compound 3.16 µM, first compound 1 µM
[23] = second compound 3.16 µM, first compound 3.16 µM
[24] = second compound 3.16 µM, first compound 10 µM
[25] = second compound 10 µM, first compound 0.0316 µM
[26] = second compound 10 µM, first compound 0.1 µM
[27] = second compound 10 µM, first compound 0.316 µM
[28] = second compound 10 µM, first compound 1 µM
[29] = second compound 10 µM, first compound 3.16 µM
[30] = second compound 10 µM, first compound 10 µM
[31] = second compound 0.1 µM, first compound 0.01 µM
[32] = second compound 0.316 µM, first compound 0.01 µM
[33] = second compound 1 µM, first compound 0.01 µM
[34] = second compound 3.16 µM, first compound 0.01 µM
[35] = second compound 10 µM, first compound 0.01 µM
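Note: spheroids exposed to agents for 7 days.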

Compound `CCNC(=O)CC1N=C(c2ccc(Cl)cc2)c2cc(OC)ccc2-n2c(C)nnc21` (stereo not given) + CC1OCC2(CCN(c3cnc(Sc4ccnc(N)c4Cl)c(N)n3)CC2)C1N has an IC50 (second compound 0.1 µM) of 7510 nM, an IC50 (second compound 0.316 µM) of 4630 nM and an IC50 (second compound 1 µM) of 3690 nM. It also gave an IC50 (second compound 3.16 µM) of 2610 nM, an IC50 (second compound 10 µM) of 1460 nM and a viability, T/C [1] of 92.8%. For the same compound, the viability, T/C [2] was 88.3%, the viability, T/C [3] was 79.4% and the viability, T/C [4] was 72.6%. It also gave a viability, T/C [5] of 60.8%, a viability, T/C [6] of 46.1% and a viability, T/C [7] of 88%. For the same compound, the viability, T/C [8] was 78.9%, the viability, T/C [9] was 68.5% and the viability, T/C [10] was 69.7%. The viability, T/C [11] was 58.8%, the viability, T/C [12] was 37.3% and the viability, T/C [13] was 85.2%. It also gave a viability, T/C [14] of 78.2%, a viability, T/C [15] of 70.5% and a viability, T/C [16] of 66.5%. For the same compound, the viability, T/C [17] was 51.6%, the viability, T/C [18] was 37% and the viability, T/C [19] was 79.4%. It also gave a viability, T/C [20] of 73.6%, a viability, T/C [21] of 62.2% and a viability, T/C [22] of 61.9%. It also gave a viability, T/C [23] of 48.3%, a viability, T/C [24] of 36.8% and a viability, T/C [25] of 72.3%. The viability, T/C [26] was 73.8%, the viability, T/C [27] was 60.7% and the viability, T/C [28] was 53%. For the same compound, the viability, T/C [29] was 45% and the viability, T/C [30] was 36.9%.
With `Cn1nccc1Nc1nccc(-c2cc3c(s2)C(C)(C)N(CCN2CCOCC2)C3=O)n1` + COc1cc2nc(C)nc(NC(C)c3cc(N)cc(C(F)(F)F)c3)c2cc1OC1CCOC1 the IC50 (second compound 0.1 µM) was 2530 nM, the IC50 (second compound 0.316 µM) was 2200 nM and the IC50 (second compound 1 µM) was 1570 nM. The IC50 (second compound 3.16 µM) was 487 nM, the IC50 (second compound 10 µM) was less than 31.6 nM and the viability, T/C [1] was 96.5%. The viability, T/C [2] was 85.8%, the viability, T/C [3] was 68.7% and the viability, T/C [4] was 59.9%. It also gave a viability, T/C [5] of 47.2%, a viability, T/C [6] of 41.6% and a viability, T/C [7] of 88.8%. The viability, T/C [8] was 83.2%, the viability, T/C [9] was 67.2% and the viability, T/C [10] was 59.9%. For the same compound, the viability, T/C [11] was 45.2%, the viability, T/C [12] was 39.6% and the viability, T/C [13] was 92.9%. For the same compound, the viability, T/C [14] was 80.5%, the viability, T/C [15] was 63.8% and the viability, T/C [16] was 53.2%. For the same compound, the viability, T/C [17] was 46.1%, the viability, T/C [18] was 37.6% and the viability, T/C [19] was 75.6%. For the same compound, the viability, T/C [20] was 68.8%, the viability, T/C [21] was 53.8% and the viability, T/C [22] was 41.6%. It also gave a viability, T/C [23] of 35.1%, a viability, T/C [24] of 28.2% and a viability, T/C [25] of 11.9%. For the same compound, the viability, T/C [26] was 13.1%, the viability, T/C [27] was 10.9% and the viability, T/C [28] was 8.43%. The viability, T/C [29] was 4.35% and the viability, T/C [30] was 1.87%.
For `Cn1ncnc1[C@H]1c2n[nH]c(=O)c3cc(F)cc(c23)N[C@@H]1c1ccc(F)cc1` + CNCc1ccccc1-c1csc(C(C)Nc2nc(C)nc3cc(OC)c(OC)cc23)c1, the IC50 (second compound 0.1 µM) was greater than 100 nM, the IC50 (second compound 0.316 µM) was greater than 100 nM and the IC50 (second compound 1 µM) was 0.634 nM. It also gave an IC50 (second compound 3.16 µM) of less than 0.316 nM, an IC50 (second compound 10 µM) of less than 0.316 nM and a viability, T/C (second compound 0.1 µM, first compound 0.000316 µM) of 107%. It also gave a viability, T/C (second compound 0.1 µM, first compound 0.001 µM) of 106%, a viability, T/C (second compound 0.1 µM, first compound 0.00316 µM) of 97% and a viability, T/C [31] of 95.7%. It also gave a viability, T/C [1] of 95.4%, a viability, T/C [2] of 93.6% and a viability, T/C (second compound 0.316 µM, first compound 0.000316 µM) of 100%. For the same compound, the viability, T/C (second compound 0.316 µM, first compound 0.001 µM) was 101%, the viability, T/C (second compound 0.316 µM, first compound 0.00316 µM) was 94.5% and the viability, T/C [32] was 86.9%. It also gave a viability, T/C [7] of 91%, a viability, T/C [8] of 88.2% and a viability, T/C (second compound 1 µM, first compound 0.000316 µM) of 54.1%. The viability, T/C (second compound 1 µM, first compound 0.001 µM) was 46.2%, the viability, T/C (second compound 1 µM, first compound 0.00316 µM) was 47.8% and the viability, T/C [33] was 41.5%. It also gave a viability, T/C [13] of 39.4%, a viability, T/C [14] of 40.6% and a viability, T/C (second compound 3.16 µM, first compound 0.000316 µM) of 0.23%. For the same compound, the viability, T/C (second compound 3.16 µM, first compound 0.001 µM) was 0.33%, the viability, T/C (second compound 3.16 µM, first compound 0.00316 µM) was 0.31% and the viability, T/C [34] was 0.28%. For the same compound, the viability, T/C [19] was 0.25%, the viability, T/C [20] was 0.42% and the viability, T/C (second compound 10 µM, first compound 0.000316 µM) was 0.14%. The viability, T/C (second compound 10 µM, first compound 0.001 µM) was 0.33%, the viability, T/C (second compound 10 µM, first compound 0.00316 µM) was 0.13% and the viability, T/C [35] was 0.15%. For the same compound, the viability, T/C [25] was 0.13% and the viability, T/C [26] was 0.23%.
`CC1COCCN1c1cc(-c2ccnn2C)c2ccnc(-c3ccn[nH]3)c2n1` (stereo not given) + CNCc1ccccc1-c1csc(C(C)Nc2nc(C)nc3cc(OC)c(OC)cc23)c1 gave an IC50 (second compound 0.1 µM) greater than 3160 nM, an IC50 (second compound 0.316 µM) of 3100 nM and an IC50 (second compound 1 µM) of 127 nM. It also gave an IC50 (second compound 3.16 µM) of less than 10 nM, an IC50 (second compound 10 µM) of less than 10 nM and a viability, T/C [31] of 97.8%. For the same compound, the viability, T/C [1] was 88.5%, the viability, T/C [2] was 80.7% and the viability, T/C [3] was 76.2%. It also gave a viability, T/C [4] of 68%, a viability, T/C [5] of 52.1% and a viability, T/C [32] of 92%. The viability, T/C [7] was 89.7%, the viability, T/C [8] was 74.1% and the viability, T/C [9] was 70%. It also gave a viability, T/C [10] of 59.4%, a viability, T/C [11] of 49.5% and a viability, T/C [33] of 63.5%. It also gave a viability, T/C [13] of 64.3%, a viability, T/C [14] of 44.1% and a viability, T/C [15] of 45.1%. For the same compound, the viability, T/C [16] was 39%, the viability, T/C [17] was 23.5% and the viability, T/C [34] was 0.32%. The viability, T/C [19] was 0.28%, the viability, T/C [20] was 0.36% and the viability, T/C [21] was 0.41%. The viability, T/C [22] was 0.44%, the viability, T/C [23] was 0.54% and the viability, T/C [35] was 0.45%. It also gave a viability, T/C [25] of 0.24%, a viability, T/C [26] of 0.19% and a viability, T/C [27] of 0.24%. It also gave a viability, T/C [28] of 0.24% and a viability, T/C [29] of 0.21%.
`CCNC(=O)CC1N=C(c2ccc(Cl)cc2)c2cc(OC)ccc2-n2c(C)nnc21` (stereo not given) + C=CC(=O)N1CCN(c2nc(OCC3CCCN3C)nc3c2CCN(c2cccc4cccc(C)c24)C3)CC1CC#N was tested, and the IC50 (second compound 0.0316 µM) was greater than 10000 nM, the IC50 (second compound 0.1 µM) was greater than 10000 nM and the IC50 (second compound 0.316 µM) was greater than 10000 nM. The IC50 (second compound 1 µM) was 6110 nM, the IC50 (second compound 3.16 µM) was less than 31.6 nM and the viability, T/C (second compound 0.0316 µM, first compound 0.0316 µM) was 97.8%. The viability, T/C (second compound 0.0316 µM, first compound 0.1 µM) was 96.6%, the viability, T/C (second compound 0.0316 µM, first compound 0.316 µM) was 83.2% and the viability, T/C (second compound 0.0316 µM, first compound 1 µM) was 83%. For the same compound, the viability, T/C (second compound 0.0316 µM, first compound 3.16 µM) was 69.3%, the viability, T/C (second compound 0.0316 µM, first compound 10 µM) was 54% and the viability, T/C [1] was 101%. For the same compound, the viability, T/C [2] was 92.8%, the viability, T/C [3] was 81.4% and the viability, T/C [4] was 78.6%. It also gave a viability, T/C [5] of 67.2%, a viability, T/C [6] of 53.2% and a viability, T/C [7] of 97.1%. The viability, T/C [8] was 88.6%, the viability, T/C [9] was 77.8% and the viability, T/C [10] was 75.1%. The viability, T/C [11] was 68.4%, the viability, T/C [12] was 53.8% and the viability, T/C [13] was 88.1%. For the same compound, the viability, T/C [14] was 85.6%, the viability, T/C [15] was 73.3% and the viability, T/C [16] was 65.6%. For the same compound, the viability, T/C [17] was 60.1%, the viability, T/C [18] was 43.4% and the viability, T/C [19] was 30.2%. The viability, T/C [20] was 28%, the viability, T/C [21] was 15.5% and the viability, T/C [22] was 1.05%. For the same compound, the viability, T/C [23] was 13.8% and the viability, T/C [24] was 6.65%.
